Tests used:
Type in all cases: organism-based
Conditions in all cases: in vivo
[1] = Acute toxicity in ip dosed rat
Homo sapiens = species on record: Homo sapiens; experiment: Acute toxicity in human
[2] = Acute toxicity in po dosed mouse

[O-][n+]1ccc(O)c(O)c1-c1c(O)c(O)cc[n+]1[O-] [ORELLANINE]
LD50 [1]: 5 mg/kg
LD50 (Homo sapiens): 29 g
LD50 [2]: 12 mg/kg

— ChEMBL document CHEMBL2151028, “Analysis of the mushroom nephrotoxin orellanine and its glucosides” (J Nat Prod, 2012)
